Experimental data reported in US9707233B2, “Heterocyclylamines as PI3K inhibitors” (Incyte Corporation, priority 2011, dated 2017).

target: PI3Kδ (p110δ/p85α) (Homo sapiens (Human), UniProt O00329); assay: PI3Kδ scintillation proximity assay (Example A3); assay type: biochemical; settings: 20 μM ATP, 20 μM PIP2, 4 nM PI3Kδ; read-out: PI3Kδ SPA IC50
How it was run: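 IC50 derived by fitting percent control activity against log inhibitor concentration. Radiolabelled product was measured by scintillation counting on WGA SPA beads after overnight shaking. The kinase reaction used 4 nM p110δ/p85α, 20 μM ATP (with [γ-33P]ATP) and 20 μM PIP2 at pH 6.7 and room temperature, with 0.5% DMSO final.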

Sequence of PI3Kδ (p110δ/p85α) (O00329 whole entry): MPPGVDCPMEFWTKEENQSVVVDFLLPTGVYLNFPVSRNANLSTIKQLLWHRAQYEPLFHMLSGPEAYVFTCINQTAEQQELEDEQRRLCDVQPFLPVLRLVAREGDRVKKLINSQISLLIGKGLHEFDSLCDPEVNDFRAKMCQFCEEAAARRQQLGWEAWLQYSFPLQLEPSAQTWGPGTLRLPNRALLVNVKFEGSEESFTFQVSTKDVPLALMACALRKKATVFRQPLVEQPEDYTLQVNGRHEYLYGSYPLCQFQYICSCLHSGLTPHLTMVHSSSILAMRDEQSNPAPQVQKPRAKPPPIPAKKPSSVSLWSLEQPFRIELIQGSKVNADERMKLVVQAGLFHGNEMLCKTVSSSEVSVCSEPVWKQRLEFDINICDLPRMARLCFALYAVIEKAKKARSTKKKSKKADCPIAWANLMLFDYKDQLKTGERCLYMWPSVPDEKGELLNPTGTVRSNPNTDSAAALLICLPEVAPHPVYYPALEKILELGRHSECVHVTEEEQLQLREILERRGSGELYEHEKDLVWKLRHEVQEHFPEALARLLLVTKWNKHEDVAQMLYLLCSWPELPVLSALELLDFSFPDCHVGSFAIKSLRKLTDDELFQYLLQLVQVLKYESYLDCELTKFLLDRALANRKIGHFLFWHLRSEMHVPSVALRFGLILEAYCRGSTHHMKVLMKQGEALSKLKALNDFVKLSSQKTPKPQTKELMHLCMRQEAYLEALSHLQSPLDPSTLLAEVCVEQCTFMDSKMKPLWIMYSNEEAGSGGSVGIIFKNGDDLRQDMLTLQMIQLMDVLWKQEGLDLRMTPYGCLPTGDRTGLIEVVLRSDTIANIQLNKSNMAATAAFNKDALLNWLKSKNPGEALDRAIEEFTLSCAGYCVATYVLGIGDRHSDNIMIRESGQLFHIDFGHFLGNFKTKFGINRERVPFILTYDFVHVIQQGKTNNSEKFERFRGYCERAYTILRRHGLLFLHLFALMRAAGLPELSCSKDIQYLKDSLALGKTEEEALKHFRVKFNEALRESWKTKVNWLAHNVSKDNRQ
Sequence of PI3Kδ (p110δ/p85α) (P27986 whole entry partner): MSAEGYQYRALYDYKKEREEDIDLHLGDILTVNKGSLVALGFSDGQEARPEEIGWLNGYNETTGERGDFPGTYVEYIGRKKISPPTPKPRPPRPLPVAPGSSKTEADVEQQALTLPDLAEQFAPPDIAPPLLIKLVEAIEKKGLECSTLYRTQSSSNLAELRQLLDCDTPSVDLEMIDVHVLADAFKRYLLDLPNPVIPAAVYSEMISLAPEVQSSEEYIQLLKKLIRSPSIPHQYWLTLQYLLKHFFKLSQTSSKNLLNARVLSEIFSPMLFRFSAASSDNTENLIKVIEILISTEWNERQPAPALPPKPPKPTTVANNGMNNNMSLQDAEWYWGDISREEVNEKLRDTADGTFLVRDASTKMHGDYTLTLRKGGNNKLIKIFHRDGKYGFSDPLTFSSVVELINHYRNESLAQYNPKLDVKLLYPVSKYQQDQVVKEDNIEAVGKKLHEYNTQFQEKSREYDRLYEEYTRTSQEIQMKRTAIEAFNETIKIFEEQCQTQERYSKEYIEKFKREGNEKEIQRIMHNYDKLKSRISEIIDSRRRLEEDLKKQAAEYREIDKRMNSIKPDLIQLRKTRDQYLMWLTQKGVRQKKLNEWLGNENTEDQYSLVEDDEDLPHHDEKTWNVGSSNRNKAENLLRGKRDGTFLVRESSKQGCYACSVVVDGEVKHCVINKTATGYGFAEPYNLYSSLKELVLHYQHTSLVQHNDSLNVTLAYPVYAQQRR

| Structure (SMILES) | IC50 |
| --- | --- |
| CCOc1c(C(C)n2nc(C)c3c(N)ncnc32)cc(Cl)c(C#N)c1C1CN(C(=O)CC)C1 (single isomer, unassigned) [Example 243, 4-[1-(4-Amino-3-methyl-1H-pyrazolo[3,4-d]pyrimidin-1-yl)ethyl]-6-chloro-3-ethoxy-2-(1-propionylazetidin-3-yl)benzonitrile] | ≤ 10 nM |
| CCOc1c(C(C)n2nc(C)c3c(N)ncnc32)cc(Cl)c(C#N)c1C1CN(C(=O)C(C)C)C1 (single isomer, unassigned) [Example 244, 4-[1-(4-Amino-3-methyl-1H-pyrazolo[3,4-d]pyrimidin-1-yl)ethyl]-6-chloro-3-ethoxy-2-(1-isobutyrylazetidin-3-yl)benzonitrile] | ≤ 10 nM |
| CCOc1c(C(C)n2nc(C)c3c(N)ncnc32)cc(Cl)c(C#N)c1C1CN(C(=O)C(C)(C)C)C1 (single isomer, unassigned) [Example 245, 4-[1-(4-Amino-3-methyl-1H-pyrazolo[3,4-d]pyrimidin-1-yl)ethyl]-6-chloro-2-[1-(2,2-dimethylpropanoyl)azetidin-3-yl]-3-ethoxybenzonitrile] | ≤ 10 nM |
| CCOc1c(C(C)n2nc(C)c3c(N)ncnc32)cc(Cl)c(C#N)c1C1CN(C(=O)C2CC2)C1 (single isomer, unassigned) [Example 246, 4-[1-(4-Amino-3-methyl-1H-pyrazolo[3,4-d]pyrimidin-1-yl)ethyl]-6-chloro-2-[1-(cyclopropylcarbonyl)azetidin-3-yl]-3-ethoxybenzonitrile] | ≤ 10 nM |
| CCOc1c(C(C)n2nc(C)c3c(N)ncnc32)cc(Cl)c(C#N)c1C1CN(S(=O)(=O)C(C)C)C1 (single isomer, unassigned) [Example 250, 4-[1-(4-Amino-3-methyl-1H-pyrazolo[3,4-d]pyrimidin-1-yl)ethyl]-6-chloro-3-ethoxy-2-[1-(isopropylsulfonyl)azetidin-3-yl]benzonitrile] | ≤ 10 nM |
| CCOc1c(C(C)n2nc(C)c3c(N)ncnc32)cc(Cl)c(C#N)c1C1CN(S(=O)(=O)C2CC2)C1 (single isomer, unassigned) [Example 251, 4-[1-(4-Amino-3-methyl-1H-pyrazolo[3,4-d]pyrimidin-1-yl)ethyl]-6-chloro-2-[1-(cyclopropylsulfonyl)azetidin-3-yl]-3-ethoxybenzonitrile] | ≤ 10 nM |
| CCOc1c(C(C)n2nc(C)c3c(N)ncnc32)cc(Cl)c(C#N)c1C1CN(C(=O)OC)C1 (single isomer, unassigned) [Example 252, Methyl 3-{3-[1-(4-amino-3-methyl-1H-pyrazolo[3,4-d]pyrimidin-1-yl)ethyl]-5-chloro-6-cyano-2-ethoxyphenyl}azetidine-1-carboxylate] | ≤ 10 nM |
| CCOC(=O)N1CC(c2c(C#N)c(Cl)cc(C(C)n3nc(C)c4c(N)ncnc43)c2OCC)C1 (single isomer, unassigned) [Example 253, Ethyl 3-{3-[1-(4-amino-3-methyl-1H-pyrazolo[3,4-d]pyrimidin-1-yl)ethyl]-5-chloro-6-cyano-2-ethoxyphenyl}azetidine-1-carboxylate] | ≤ 10 nM |
| CCOc1c(C(C)n2nc(C)c3c(N)ncnc32)cc(Cl)c(C#N)c1C1CN(C(=O)NC(C)(C)C)C1 (single isomer, unassigned) [Example 255, 3-{3-[1-(4-Amino-3-methyl-1H-pyrazolo[3,4-d]pyrimidin-1-yl)ethyl]-5-chloro-6-cyano-2-ethoxyphenyl}-N-(tert-butyl)azetidine-1-carboxamide] | ≤ 10 nM |
| CCOc1c(C(C)n2nc(C)c3c(N)ncnc32)cc(Cl)c(C#N)c1C1CN(C(N)=O)C1 (single isomer, unassigned) [Example 256, 3-{3-[1-(4-Amino-3-methyl-1H-pyrazolo[3,4-d]pyrimidin-1-yl)ethyl]-5-chloro-6-cyano-2-ethoxyphenyl}azetidine-1-carboxamide] | ≤ 10 nM |
| CCNC(=O)N1CC(c2c(C#N)c(Cl)cc(C(C)n3nc(C)c4c(N)ncnc43)c2OCC)C1 (single isomer, unassigned) [Example 258, 3-{3-[1-(4-Amino-3-methyl-1H-pyrazolo[3,4-d]pyrimidin-1-yl)ethyl]-5-chloro-6-cyano-2-ethoxyphenyl}-N-ethylazetidine-1-carboxamide] | ≤ 10 nM |
| CCOc1c(C(C)n2nc(C)c3c(N)ncnc32)cc(Cl)c(C#N)c1C1CN(C(=O)N(C)C)C1 (single isomer, unassigned) [Example 259, 3-{3-[1-(4-Amino-3-methyl-1H-pyrazolo[3,4-d]pyrimidin-1-yl)ethyl]-5-chloro-6-cyano-2-ethoxyphenyl}-N,N-dimethylazetidine-1-carboxamide] | ≤ 10 nM |
| CCN1CC(c2c(C#N)c(Cl)cc(C(C)n3nc(C)c4c(N)ncnc43)c2OC)C1 (single isomer, unassigned) [Example 263, 4-[1-(4-Amino-3-methyl-1H-pyrazolo[3,4-d]pyrimidin-1-yl)ethyl]-6-chloro-2-(1-ethylazetidin-3-yl)-3-methoxybenzonitrile] | ≤ 10 nM |
| COc1c(C(C)n2nc(C)c3c(N)ncnc32)cc(Cl)c(C#N)c1C1CN(CC(C)C)C1 (single isomer, unassigned) [Example 265, 4-[1-(4-Amino-3-methyl-1H-pyrazolo[3,4-d]pyrimidin-1-yl)ethyl]-6-chloro-2-(1-isobutylazetidin-3-yl)-3-methoxybenzonitrile] | ≤ 10 nM |
| COc1c(C(C)n2nc(C)c3c(N)ncnc32)cc(Cl)c(C#N)c1C1CN(CC2CC2)C1 (single isomer, unassigned) [Example 266, 4-[1-(4-Amino-3-methyl-1H-pyrazolo[3,4-d]pyrimidin-1-yl)ethyl]-6-chloro-2-[1-(cyclopropylmethyl)azetidin-3-yl]-3-methoxybenzonitrile] | ≤ 10 nM |
| COc1c(C(C)n2nc(C)c3c(N)ncnc32)cc(Cl)c(C#N)c1C1CN(C2CCC2)C1 (single isomer, unassigned) [Example 267, 4-[1-(4-Amino-3-methyl-1H-pyrazolo[3,4-d]pyrimidin-1-yl)ethyl]-6-chloro-2-(1-cyclobutylazetidin-3-yl)-3-methoxybenzonitrile] | ≤ 10 nM |
| COc1c(C(C)n2nc(C)c3c(N)ncnc32)cc(Cl)c(C#N)c1C1CN(CC2CCOCC2)C1 (single isomer, unassigned) [Example 280, 4-[1-(4-Amino-3-methyl-1H-pyrazolo[3,4-d]pyrimidin-1-yl)ethyl]-6-chloro-3-methoxy-2-[1-(tetrahydro-2H-pyran-4-ylmethyl)azetidin-3-yl]benzonitrile] | ≤ 10 nM |
| CCC(=O)N1CC(c2c(C#N)c(Cl)cc(C(C)n3nc(C)c4c(N)ncnc43)c2OC)C1 (single isomer, unassigned) [Example 282, 4-[1-(4-Amino-3-methyl-1H-pyrazolo[3,4-d]pyrimidin-1-yl)ethyl]-6-chloro-3-methoxy-2-(1-propionylazetidin-3-yl)benzonitrile] | ≤ 10 nM |
| COc1c(C(C)n2nc(C)c3c(N)ncnc32)cc(Cl)c(C#N)c1C1CN(C(=O)C(C)C)C1 (single isomer, unassigned) [Example 283, 4-[1-(4-Amino-3-methyl-1H-pyrazolo[3,4-d]pyrimidin-1-yl)ethyl]-6-chloro-2-(1-isobutyrylazetidin-3-yl)-3-methoxybenzonitrile] | ≤ 10 nM |
| COc1c(C(C)n2nc(C)c3c(N)ncnc32)cc(Cl)c(C#N)c1C1CN(C(=O)C2CC2)C1 (single isomer, unassigned) [Example 284, 4-[1-(4-Amino-3-methyl-1H-pyrazolo[3,4-d]pyrimidin-1-yl)ethyl]-6-chloro-2-[1-(cyclopropylcarbonyl)azetidin-3-yl]-3-methoxybenzonitrile] | ≤ 10 nM |
| CCS(=O)(=O)N1CC(c2c(C#N)c(Cl)cc(C(C)n3nc(C)c4c(N)ncnc43)c2OC)C1 (single isomer, unassigned) [Example 286, 4-[1-(4-Amino-3-methyl-1H-pyrazolo[3,4-d]pyrimidin-1-yl)ethyl]-6-chloro-2-[1-(ethylsulfonyl)azetidin-3-yl]-3-methoxybenzonitrile] | ≤ 10 nM |
| COc1c(C(C)n2nc(C)c3c(N)ncnc32)cc(Cl)c(C#N)c1C1CN(S(=O)(=O)C2CC2)C1 (single isomer, unassigned) [Example 288, 4-[1-(4-Amino-3-methyl-1H-pyrazolo[3,4-d]pyrimidin-1-yl)ethyl]-6-chloro-2-[1-(cyclopropylsulfonyl)azetidin-3-yl]-3-methoxybenzonitrile] | ≤ 10 nM |
| CCOC(=O)N1CC(c2c(C#N)c(Cl)cc(C(C)n3nc(C)c4c(N)ncnc43)c2OC)C1 (single isomer, unassigned) [Example 290, Ethyl 3-{3-[1-(4-amino-3-methyl-1H-pyrazolo[3,4-d]pyrimidin-1-yl)ethyl]-5-chloro-6-cyano-2-methoxyphenyl}azetidine-1-carboxylate] | ≤ 10 nM |
| COc1c(C(C)n2nc(C)c3c(N)ncnc32)cc(Cl)c(C#N)c1C1CN(C(=O)OC(C)C)C1 (single isomer, unassigned) [Example 291, Isopropyl 3-{3-[1-(4-amino-3-methyl-1H-pyrazolo[3,4-d]pyrimidin-1-yl)ethyl]-5-chloro-6-cyano-2-methoxyphenyl}azetidine-1-carboxylate] | ≤ 10 nM |
| CCNC(=O)N1CC(c2c(C#N)c(Cl)cc(C(C)n3nc(C)c4c(N)ncnc43)c2OC)C1 (single isomer, unassigned) [Example 295, 3-{3-[1-(4-Amino-3-methyl-1H-pyrazolo[3,4-d]pyrimidin-1-yl)ethyl]-5-chloro-6-cyano-2-methoxyphenyl}-N-ethylazetidine-1-carboxamide] | ≤ 10 nM |
| CCN1CC(c2c(Cl)c(Cl)cc(C(C)n3nc(C)c4c(N)ncnc43)c2OC)C1 (single isomer, unassigned) [Example 298, 1-{1-[4,5-Dichloro-3-(1-ethylazetidin-3-yl)-2-methoxyphenyl]ethyl}-3-methyl-1H-pyrazolo[3,4-d]pyrimidin-4-amine] | ≤ 10 nM |
